We go through two compounds from patent publication US10105446B2, “Pharmaceutical compositions for high-capacity targeted delivery” (Wake Forest University Health Sciences, priority 2013, dated 2018).

The subject of one data set is C4-2 cells. The data set can be described thus: Cytotoxicity, CellTiter-Glo cell viability assay, C4-2 cells. In kind it is cell-based. As to the method: (§1) PC3, C4-2, and C4-2Luc cells were seeded at a density of 3,000 cells/well in 96-well plates and incubated at 37° C. under 5% CO2. Next day, the cells were treated with Dox, DAC+Dox, or DAC-D for 24 h. Next day the treatment was removed, cells were washed once with warm fresh media and incubated for another 48 h in fresh media. Cell counts were measured indirectly by measuring the ATP amounts using CellTiter-Glo® luminescent cell viability assay (Promega, Madison, Wis.) according to the manufacturer's protocol. In co-culture experiments, PC3 and C4-2Luc cells were each seeded at a density of 1,500 cells/well in 96-well plates. Co-cultured cells were treated with Dox, DAC+Dox, or DAC-D and cell viability was also measured using the CellTiter-Glo® assay. Luciferase levels were measured for co-cultures of PC3 and C4-2Luc cells using a luciferase reporter assay system (Promega). PC3 and C4-2Luc cells were seeded and treated as described above and the cells were lysed and luciferase activity was measured according to the manufacturer's protocol.
(In ATP-based viability assays light output follows the ATP content of the culture.)

Another data set deals with PC3 cells. The data set can be described thus: Cytotoxicity, CellTiter-Glo cell viability assay, PC3 cells. In kind it is cell-based. As to the method: as §1
Another data set has as its system PSMA-null PC3 cells. The experiment in a line: Uptake/internalization by confocal microscopy and flow cytometry, PSMA-null PC3 cells. In kind it is cell-based. The conditions noted are these: 1 μM, 2 h, confocal microscopy. As to the method: (§2) Cells were seeded at 20,000 cells/well in 8-well Lab-Tek® II chambered #1.5 German coverglass system (Thermo Fisher Sci., Waltham, Mass.), and incubated at 37° C. under 5% CO2 for 2 days. Cells were incubated with 1 μM of DAC in which the dA16 aptamer was labeled with Quasar 570 at the 5′-terminus and the T16 aptamer was labeled with Quasar 670 dyes in RPMI with 10% FBS for 2 h at 37° C. Cells were washed with fresh media and DPBS, followed by a 5 min fixation with 3.7% formaldehyde in DPBS. Cells were visualized using a Zeiss LSM510 confocal microscope (Carl Zeiss, Oberkochen, Germany). Cells were also incubated with 1 μM of DAC-D (or the non-covalent DAC+D), for 2 h. DAC were only labeled with Quasar 670 for these studies as the Quasar 570 emission would interfere with the Dox emission. Cells were washed, fixed, and imaged using identical procedures.
(§3) PC3 and C4-2 cells were incubated with 1 μM of DAC for 2 h at 37° C. Dimers were fluorescently labeled with either Quasar 570 or 670 alone, or both. Cells were trypsinized and washed with PBS twice. Cells re-suspended in PBS were analyzed to measure their intracellular fluorescence using the Accuri™ C6 flow cytometer (BD Biosciences).
Background: Flow cytometry measures light scatter and fluorescence of single cells or particles in a stream.

The conditions of data set [1]: cited from earlier work.
The test system of another data set is PSMA+ C4-2 cells. The data set can be described thus: Uptake/internalization by confocal microscopy and flow cytometry, PSMA+ C4-2 cells. In kind it is cell-based. As to the method: as §2, §3
Data set [2] can be described thus: Determination of Dox:DNA ratios by absorbance. Format: physicochemical. As to the method: DNA Ratios: DNA samples were prepared in dH2O, and absorbencies were measured from 200-800 nm using a Beckman Coulter DU800 spectrophotometer. A standard curve of Dox was established between 1 μM and 10 μM by using absorbencies at 494 nm at 85° C. To assess the amount of Dox covalently bound to DNA, the samples were heated to 85° C. before measuring the absorbance at 494 nm and 260 nm. The 260 nm wavelength was used to determine the DNA content in the sample and to determine the Dox:DNA ratio.

The nature of data set [3]: Temperature-dependent UV melting (thermal stability of dimeric aptamer complexes). Format: physicochemical. Conditions: UV absorbance at 260 nm, heating 0.7° C./min. On the procedure:
Temperature-dependent UV absorption spectra were obtained using a Beckman Coulter DU-800 UV-Vis spectrophotometer. Samples of DAC, DAC-D, and DAC+D were prepared. The temperature was increased at a rate of 0.7° C./min over the range 20-85° C. and absorbance at 260 nm was measured for each sample, (400 μL, 1 μM) concentration.

For `COc1cccc2c1C(=O)c1c(O)c3c(c(O)c1C2=O)C[C@@](O)(C(=O)CO)C[C@@H]3O[C@H]1C[C@H](N)[C@H](O)[C@H](C)O1` [Dox, doxorubicin], the reduction in viability with C4-2 cells (2 μM Dox, 24 h treatment + 48 h growth, cell line not specified in the sentence (PC3 and C4-2)) was ~90%. Besides, the “cytotoxicity (in words)” value in the data set with C4-2 cells (C4-2 cells) and with PC3 cells was “highly cytotoxic” each time. The “Dox internalization / nuclear accumulation” value in the data set on PSMA-null PC3 cells (PC3 cells) was “readily accumulated”; in the data set with PSMA+ C4-2 cells (1 μM, 2 h, confocal microscopy, C4-2 cells), “readily accumulated”. Further, the “pKa of the doxorubicin amino group” value in data set [1] is listed as 8.2.

On to “DAC: Dimer of PSMA DNA aptamer SZTI01 annealed through dCGGCA16GCCG / dCGGCT16GCCG tails (SEQ ID NO:5, 6) (chain 1 CGGCAAAAAAAAAAAAAAAAGCCG; chain 2 CGGCTTTTTTTTTTTTTTTTGCCG; DNA, backbone and methylation of C not given here; tails of DNA aptamer dimer, further chemistry not fully specified)”, for which the “uptake of fluorescently-labeled aptamer” value is “minimal uptake” with PSMA-null PC3 cells (Quasar 570/670 labels) and “strong signal” in the data set with PSMA+ C4-2 cells (1 μM, 2 h, Quasar 570/670 labels, confocal microscopy). Besides, the entries for the “calc ratio (Dox bound per DAC)” value in data set [2] (Dox:DAC ratio 16x), in data set [2] (Dox:DAC ratio 24x) and in data set [2] (Dox:DAC ratio 32x) were 10.8, 14.18 and 13.7156, respectively. For the same compound, in data set [2] (titration), the “molar equivalents of doxorubicin that can be covalently bound to each DAC” value is 14 molar equivalents. Also, in data set [3], the dissociation temperature was ~58 °C. The “uptake after pre-incubation with J591 PSMA-specific monoclonal antibody” value in the data set on PSMA+ C4-2 cells (C4-2 cells pre-incubated with J591) is given as “attenuated”.
